Measurements from patent publication US11992536B2, “Dual-targeting compound and preparation method and application thereof” (YANTAI LANNACHENG BIOTECHNOLOGY CO., LTD., priority 2022, dated 2024).

Assays:
[1] = system: HT1080-FAP tumor cells; assay: Cell uptake and blocking experiment in HT1080-FAP tumor cells; assay type: cell-based; details: blocking experiment
[2] = target: T1, FAP (Homo sapiens, UniProt Q12884); assay: Cell binding experiment in HT1080-FAP tumor cells (FIG. 11B); details: cell experiment of HT1080-FAP
T1 construct: expressed in transfected cells; host or cells: HT1080-FAP tumor cells
T1 sequence (Q12884 1-760): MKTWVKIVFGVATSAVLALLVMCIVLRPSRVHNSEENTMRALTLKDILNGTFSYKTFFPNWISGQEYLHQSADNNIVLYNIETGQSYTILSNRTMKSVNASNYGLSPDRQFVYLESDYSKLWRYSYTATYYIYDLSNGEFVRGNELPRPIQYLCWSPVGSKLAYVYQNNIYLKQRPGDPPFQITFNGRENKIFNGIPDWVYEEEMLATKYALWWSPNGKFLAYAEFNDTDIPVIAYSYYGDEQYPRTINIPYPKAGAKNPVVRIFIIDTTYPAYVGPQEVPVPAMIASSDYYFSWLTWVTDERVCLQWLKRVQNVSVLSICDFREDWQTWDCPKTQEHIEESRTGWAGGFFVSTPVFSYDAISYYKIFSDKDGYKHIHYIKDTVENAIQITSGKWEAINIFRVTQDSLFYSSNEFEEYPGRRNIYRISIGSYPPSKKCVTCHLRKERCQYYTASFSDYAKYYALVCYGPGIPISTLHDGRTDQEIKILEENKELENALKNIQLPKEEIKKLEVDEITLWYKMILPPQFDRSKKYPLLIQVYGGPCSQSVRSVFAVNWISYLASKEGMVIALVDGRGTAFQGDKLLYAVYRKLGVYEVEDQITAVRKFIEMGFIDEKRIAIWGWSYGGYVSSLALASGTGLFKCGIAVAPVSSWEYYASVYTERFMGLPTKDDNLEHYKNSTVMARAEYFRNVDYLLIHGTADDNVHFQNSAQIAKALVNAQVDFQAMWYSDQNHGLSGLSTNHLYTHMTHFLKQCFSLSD

IC50 [2] [nM]	Compound	blocking of the cell uptake of 68Ga-FAPI-RGD [1]
–	N#C[C@@H]1CCCN1C(=O)CNC(=O)c1ccnc2ccc(OCCCN3CCN(C(=O)CN4CCN(CC(=O)O)CCN(CC(=O)O)CCN(CC(=O)O)CC4)CC3)cc12 [FAPI-02]	partially inhibited
11.2	N#C[C@@H]1CCCN1C(=O)CNC(=O)c1ccnc2ccc(OCCCN3CCN(C(=O)CCOCCOCCNC(=O)[C@H](CCC(=O)NCCOCCOCCC(=O)NCCCC[C@@H]4NC(=O)[C@@H](Cc5ccccc5)NC(=O)[C@H](CC(=O)O)NC(=O)CNC(=O)[C@H](CCCNC(=N)N)NC4=O)NC(=O)CN4CCN(CC(=O)O)CCN(CC(=O)O)CC4)CC3)cc12 [68Ga-FAPI-RGD, metal not drawn]	–
–	C(RGDfK)	partially inhibited
